# Test results: US12581252B2, “Substituted pyrrolo[3,4-b]pyridines as PI3K-α inhibitors” (Relay Therapeutics, Inc., priority 2020, dated 2026)
# Biological target: H1047R PIK3CA enzyme (Homo sapiens, UniProt P42336, H1047R)
# Test: ADP-Glo Biochemical PIK3CA Kinase Assay
# H1047R PIK3CA enzyme, sequence (P42336 whole entry H1047R): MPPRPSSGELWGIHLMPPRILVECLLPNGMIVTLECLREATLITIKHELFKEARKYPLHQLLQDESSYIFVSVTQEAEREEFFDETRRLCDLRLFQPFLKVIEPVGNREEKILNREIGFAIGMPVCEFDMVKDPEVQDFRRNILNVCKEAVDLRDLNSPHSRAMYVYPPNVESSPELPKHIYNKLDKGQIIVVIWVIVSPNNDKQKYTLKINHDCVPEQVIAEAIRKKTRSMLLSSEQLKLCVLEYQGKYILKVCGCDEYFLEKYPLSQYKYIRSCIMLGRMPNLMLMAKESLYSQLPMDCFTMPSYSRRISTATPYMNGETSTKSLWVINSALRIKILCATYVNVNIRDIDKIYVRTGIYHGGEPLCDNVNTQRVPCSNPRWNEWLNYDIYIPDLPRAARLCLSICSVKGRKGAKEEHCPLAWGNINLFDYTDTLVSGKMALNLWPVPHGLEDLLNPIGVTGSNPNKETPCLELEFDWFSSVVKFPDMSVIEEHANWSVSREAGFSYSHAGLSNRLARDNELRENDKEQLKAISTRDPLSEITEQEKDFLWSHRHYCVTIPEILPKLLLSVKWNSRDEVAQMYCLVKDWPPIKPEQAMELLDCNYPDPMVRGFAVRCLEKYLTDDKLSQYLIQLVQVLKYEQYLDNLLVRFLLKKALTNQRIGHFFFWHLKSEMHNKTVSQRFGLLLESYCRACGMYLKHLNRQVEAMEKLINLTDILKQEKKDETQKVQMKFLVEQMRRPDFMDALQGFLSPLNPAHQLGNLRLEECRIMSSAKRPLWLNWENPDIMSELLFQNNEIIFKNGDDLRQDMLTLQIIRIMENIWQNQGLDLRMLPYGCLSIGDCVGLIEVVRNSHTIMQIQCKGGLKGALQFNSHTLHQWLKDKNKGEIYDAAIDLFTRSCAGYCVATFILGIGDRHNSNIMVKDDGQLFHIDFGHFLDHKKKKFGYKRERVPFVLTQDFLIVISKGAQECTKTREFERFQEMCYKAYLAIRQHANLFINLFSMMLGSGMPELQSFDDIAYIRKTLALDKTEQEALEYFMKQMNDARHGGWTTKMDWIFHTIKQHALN
# H1047R PIK3CA enzyme, sequence (P27986 whole entry partner): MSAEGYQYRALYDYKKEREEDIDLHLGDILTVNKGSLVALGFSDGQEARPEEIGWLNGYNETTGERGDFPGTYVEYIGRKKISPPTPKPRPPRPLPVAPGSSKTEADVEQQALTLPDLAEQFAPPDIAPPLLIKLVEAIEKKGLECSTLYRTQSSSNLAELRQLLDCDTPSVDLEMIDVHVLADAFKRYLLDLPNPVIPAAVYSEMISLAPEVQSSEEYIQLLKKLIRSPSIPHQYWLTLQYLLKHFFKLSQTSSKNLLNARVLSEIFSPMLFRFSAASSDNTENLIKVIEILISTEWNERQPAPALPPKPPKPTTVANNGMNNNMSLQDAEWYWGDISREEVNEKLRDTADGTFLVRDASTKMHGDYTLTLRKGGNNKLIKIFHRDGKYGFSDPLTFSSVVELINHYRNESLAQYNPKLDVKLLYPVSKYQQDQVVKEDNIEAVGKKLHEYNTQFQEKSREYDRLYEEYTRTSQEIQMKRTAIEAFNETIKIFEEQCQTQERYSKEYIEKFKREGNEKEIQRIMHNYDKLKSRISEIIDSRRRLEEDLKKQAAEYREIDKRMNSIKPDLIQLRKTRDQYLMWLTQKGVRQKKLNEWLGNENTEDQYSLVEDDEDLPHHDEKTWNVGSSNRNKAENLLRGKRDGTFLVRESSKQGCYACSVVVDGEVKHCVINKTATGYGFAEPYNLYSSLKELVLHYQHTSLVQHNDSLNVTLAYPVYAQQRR
row,Compound,IC50 [µM]
1,"O=C1N[C@@H](c2cc(F)ccc2Cl)c2c(NC(=O)N3C[C@](O)(C(F)(F)F)c4cc(F)ccc43)cc(N3CCCC3=O)cc21 (single isomer, unassigned) [Compound I-2668]",10 to 100
2,"N#CCc1cc(NC(=O)N2C[C@@H](O)c3cc(F)ccc32)c2c(c1)C(=O)N[C@@H]2c1cc(F)ccc1Cl (single isomer, unassigned) [Compound I-2538]",≤ 0.1
3,O=C1NC(c2cc(F)ccc2C(F)F)c2c(NC(=O)c3nsc4ccccc34)cc(Br)cc21 (stereo not shown) [Compound I-612],≤ 0.1
4,Cc1ccccc1C1NCCc2c(Br)ccc(NC(=O)c3cc(F)cc(C(F)(F)F)c3)c21 (stereo not shown) [Compound I-1963],10 to 100
5,CS(=O)(Cc1cc(NC(=O)c2cc(F)cc(C(F)(F)F)c2)c2c(c1)C(=O)NC2c1cc(F)ccc1Cl)=NC#N (stereo not shown) [Compound I-1312],≤ 0.1
6,"O=C1N[C@@H](c2cc(F)ccc2Cl)c2c(NC(=O)N3C[C@H](O)c4cc(F)ccc43)cc(-n3ccnn3)cc21 (single isomer, unassigned) [Compound I-2368]",1 to 10
7,O=C(Nc1cccc2c1C(CO)NC2=O)c1cc(F)cc(C(F)(F)F)c1 (stereo not shown) [Compound I-1666],10 to 100
8,CN1CC[C@@H](Nc2cc(NC(=O)c3cc(F)cc(C(F)(F)F)c3)c3c(c2)C(=O)NC3c2cc(F)ccc2Cl)C1 (stereo partly shown) [Compound I-312],≤ 0.1
9,CCCNc1cc(NC(=O)c2cc(F)cc(C(F)(F)F)c2)c2c(n1)C(=O)NC2c1cc(F)ccc1Cl (stereo not shown) [Compound I-319],≤ 0.1
10,"O=C1N[C@H](c2ccccc2Cl)c2c(NC(=O)N3C[C@](O)(C(F)(F)F)c4cc(F)ccc43)cccc21 (single isomer, unassigned) [Compound I-2687]",1 to 10
11,"O=C1N[C@@H](c2cc(F)ccc2Cl)c2c(NC(=O)N3C[C@H](O)c4cc(F)ccc43)cc(-n3nccn3)cc21 (single isomer, unassigned) [Compound I-2342]",0.1 to 0.5
12,O=C(CCC(F)(F)F)Nc1cccc2c1[C@H](c1cc(F)ccc1Cl)NC2=O [Compound I-2120],10 to 100
13,"O=C1N[C@@H](c2cc(F)ccc2Cl)c2c(NC(=O)[C@@H]3CC[C@H](O)C3)cc(Br)cc21 (single isomer, unassigned) [Compound I-2104]",10 to 100
14,N#Cc1cncn1Cc1cc(NC(=O)c2cc(F)cc(C(F)(F)F)c2)c2c(c1)C(=O)N[C@H]2c1cc(F)ccc1Cl (stereo in doubt) [Compound I-1748],≤ 0.1
15,Cc1ccccc1[C@H]1NC(=O)c2c(C(N)=O)ccc(NC(=O)c3cc(F)cc(C(F)(F)F)c3)c21 [Compound I-509],0.1 to 0.5
16,O=C(Nc1cc(C2COCCO2)cc2c1C(c1cc(F)ccc1Cl)NC2=O)c1cc(F)cc(C(F)(F)F)c1 (stereo not shown) [Compound I-1361],0.1 to 0.5
17,O=C(CO)Nc1cc(NC(=O)c2cc(F)cc(C(F)(F)F)c2)c2c(c1)C(=O)NC2c1cc(F)ccc1Cl (stereo not shown) [Compound I-345],≤ 0.1
18,"N#CCc1cc(NC(=O)N2C[C@@](O)(C(F)(F)F)c3ccccc32)c2c(c1)C(=O)N[C@@H]2c1cc(F)ccc1Cl (single isomer, unassigned) [Compound I-2603]",1 to 10
19,"O=C1N[C@H](c2cc(F)ccc2Cl)c2c(NC(=O)N3C[C@@](O)(C(F)(F)F)c4cc(F)ccc43)ccc(-n3cccn3)c21 (single isomer, unassigned) [Compound I-2496]",1 to 10
20,N#Cc1c(-c2cc(NC(=O)c3cc(F)cc(Cl)c3)c3c(c2)C(=O)N[C@H]3c2cc(F)ccc2Cl)ccc2ncnn12 [Compound I-2063],0.5 to 1
21,O=C(Nc1cccc2c1C(c1cc(F)ccc1Cl)NC2=O)c1cscc1C(F)(F)F (stereo not shown) [Compound I-2361],1 to 10

row,Compound,IC50 [µM]
1,Cc1ccccc1C1NC(=O)c2cccc(NC(=O)c3cc(C(F)(F)F)ccn3)c21 (stereo not shown) [Compound I-337],10 to 100
2,N#Cc1cnccc1-c1cc(NC(=O)c2cc(F)cc(C(F)(F)F)c2)c2c(c1)C(=O)N[C@H]2c1cc(F)ccc1Cl (stereo in doubt) [Compound I-1232],≤ 0.1
3,O=C(Nc1cc(-c2ccc3nnnn3c2)cc2c1[C@H](c1cc(F)ccc1Cl)NC2=O)c1cc(F)cc(C(F)(F)F)c1 [Compound I-1453],≤ 0.1
4,O=C(Nc1cccc2c1C(c1cccc(C3CC3)c1)NC2=O)c1cc(F)cc(C(F)(F)F)c1 (stereo not shown) [Compound I-718],10 to 100
5,"N#Cc1cnn(-c2cc(NC(=O)N3C[C@H](O)c4cc(F)ccc43)c3c(c2)C(=O)N[C@@H]3c2cc(F)ccc2Cl)c1 (single isomer, unassigned) [Compound I-2406]",1 to 10
6,Nc1cc(-c2ccc3ncnn3c2)cc2c1C(c1cc(F)ccc1Cl)NC2=O (stereo not shown) [Compound I-1671],10 to 100
7,O=C1NC(c2cc(F)ccc2Cl)c2c1cc(-c1ccc3ncnn3c1)cc2N1CCn2cnnc2C1 (stereo not shown) [Compound I-2019],10 to 100
8,"C[C@]1(O)CN(C(=O)Nc2cc(Br)cc3c2C(c2cc(F)ccc2Cl)NC3=O)c2ccccc21 (single isomer, unassigned) [Compound I-1508]",1 to 10
9,N#Cc1cnc2c(F)cc(-c3cc(NC(=O)c4cc(F)cc(C(F)(F)F)c4)c4c(c3)C(=O)N[C@H]4c3cc(F)ccc3Cl)cn12 [Compound I-1856],≤ 0.1
10,NC(=O)CCN(C(=O)c1cc(F)cc(C(F)(F)F)c1)c1cc(O)cc2c1C(c1cc(F)ccc1Cl)NC2=O (stereo not shown) [Compound I-2309],10 to 100
11,O=C(Nc1cccc2c1C(CC1CC=CC1)NC2=O)c1cc(F)cc(C(F)(F)F)c1 (stereo not shown) [Compound I-2322],10 to 100
12,N#Cc1cc(NC(=O)c2cc(F)cc(Cl)c2)c2c(c1)C(=O)NC2c1cc(F)ccc1Cl (stereo not shown) [Compound I-531],≤ 0.1
13,O=C(Nc1cc(-c2ccc3nc(C(F)F)nn3c2)cc2c1[C@H](c1cc(F)ccc1Cl)NC2=O)c1cc(F)cc(C(F)(F)F)c1 [Compound I-1987],≤ 0.1
14,Cc1ccccc1C1NC(=O)c2cccc(NC(=O)c3cc(F)cc(OC(F)(F)F)c3)c21 (stereo not shown) [Compound I-318],0.5 to 1
15,O=C1NC(c2cc(F)ccc2Cl)c2c(Nc3cc4ccccc4cn3)cc(Br)cc21 (stereo not shown) [Compound I-1683],10 to 100
16,O=C(Nc1cccc2c1C(C1CCNCC1)NC2=O)c1cc(F)cc(C(F)(F)F)c1 (racemic) [Compound I-1770],1 to 10
17,Cn1ncc(-c2cc(NC(=O)c3cc(F)cc(C(F)(F)F)c3)c3c(c2)C(=O)N[C@@H]3c2cc(F)ccc2Cl)c1C#N [Compound I-1794],1 to 10
18,CN(C)S(=O)(=O)c1cc(-c2ccc3ncnn3c2)cc2c1C(c1cc(F)ccc1Cl)NC2=O (stereo not shown) [Compound I-1968],10 to 100
19,O=C(Nc1cc(Br)cc2c1C(c1cc(F)ccc1Cl)NC2=O)c1cc(O)cc(F)c1 (stereo not shown) [Compound I-1283],1 to 10
20,CCC1CCN(C(=O)Nc2cccc3c2C(c2cc(F)ccc2Cl)NC3=O)C1 (stereo not shown) [Compound I-2420],10 to 100
21,"CS(=O)(=O)N1CCC[C@H]1COc1cc(NC(=O)c2cc(F)cc(C(F)(F)F)c2)c2c(c1)C(=O)NC2c1cc(F)ccc1Cl (single isomer, unassigned) [Compound I-1375]",≤ 0.1

row,Compound,IC50 [µM]
1,O=C1C=C(c2cc(NC(=O)c3cc(F)cc(C(F)(F)F)c3)c3c(c2)C(=O)NC3c2cc(F)ccc2Cl)CO1 (stereo not shown) [Compound I-1587],≤ 0.1
2,"O=C1N[C@@H](c2cc(F)ccc2Cl)c2c(NC(=O)N3C[C@H](C(F)F)c4ccccc43)cccc21 (single isomer, unassigned) [Compound I-2332]",1 to 10
3,"O=C1N[C@@H](c2cc(F)ccc2Cl)c2c(NC(=O)N3C[C@H](O)c4c3ccc(F)c4F)cccc21 (single isomer, unassigned) [Compound I-2312]",1 to 10
4,Cc1ccccc1C1NC(=O)c2cc(C(F)F)cc(NC(=O)c3cc(F)cc(C(F)(F)F)c3)c21 (stereo not shown) [Compound I-692],0.1 to 0.5
5,Cc1ccccc1[C@@H]1NC(=O)c2cccc(NC(=O)c3coc4c(F)cc(F)cc34)c21 [Compound I-98],0.1 to 0.5
6,O=C(Nc1cc(C2CN(C3COC3)C2)cc2c1C(c1cc(F)ccc1Cl)NC2=O)c1cc(F)cc(C(F)(F)F)c1 (stereo not shown) [Compound I-1280],≤ 0.1
7,"N#Cc1cc(NC(=O)N2C[C@@H](O)c3cc(F)ccc32)c2c(c1)C(=O)N[C@H]2c1cc(F)ccc1Cl (single isomer, unassigned) [Compound I-2493]",0.1 to 0.5
8,"O=C1N[C@@H](c2cc(F)ccc2Cl)c2c(NC(=O)N3C[C@@](O)(C(F)F)c4cc(F)ccc43)cc(Cl)cc21 (single isomer, unassigned) [Compound I-2589]",1 to 10
9,N#Cc1cnc2cc(F)c(-c3cc(NC(=O)c4cc(F)cc(C(F)(F)F)c4)c4c(c3)C(=O)N[C@H]4c3cc(F)ccc3Cl)cn12 [Compound I-1884],≤ 0.1
10,N#Cc1nnc2ccc(-c3cc(NC(=O)c4cc(F)cc(C(F)(F)F)c4)c4c(c3)C(=O)NC4c3cc(F)ccc3Cl)cn12 (stereo not shown) [Compound I-1708],≤ 0.1
11,"O=C1CCC[C@H]([C@H]2NC(=O)c3cccc(NC(=O)c4cc(F)cc(C(F)(F)F)c4)c32)C1 (single isomer, unassigned) [Compound I-2252]",10 to 100
12,CNc1cc(NC(=O)N2C[C@](O)(C(F)F)c3cc(F)ccc32)c2c(c1)C(=O)N[C@@H]2c1cc(F)ccc1Cl [Compound I-2677],≤ 0.1
13,"N#CCc1ccc(NC(=O)N2C[C@](O)(C(F)(F)F)c3cc(F)ccc32)c2c1C(=O)N[C@@H]2c1cc(F)ccc1Cl (single isomer, unassigned) [Compound I-2615]",1 to 10
14,COc1cccc(-c2cccc3c2C(c2ccccc2C)NC3=O)n1 (stereo not shown) [Compound I-14],10 to 100
15,"CC(=O)N1CC[C@H](Oc2cc(NC(=O)c3cc(F)cc(C(F)(F)F)c3)c3c(c2)C(=O)NC3c2cc(F)ccc2Cl)C1 (single isomer, unassigned) [Compound I-1541]",0.1 to 0.5
16,O=C(Nc1cc(-c2ccn3ncnc3n2)cc2c1C(c1cc(F)ccc1Cl)NC2=O)c1cc(F)cc(C(F)(F)F)c1 (stereo not shown) [Compound I-1677],≤ 0.1
17,O=C(Nc1cccc2c1C(C1CCCCC1O)NC2=O)c1cc(F)cc(C(F)(F)F)c1 (stereo not shown) [Compound I-2060],10 to 100
18,CC(C)(CNC(=O)Nc1cc(Br)cc2c1C(c1cc(F)ccc1Cl)NC2=O)C1(O)CCC1 (stereo not shown) [Compound I-1507],10 to 100
19,"O=C1N[C@H](c2cc(F)ccc2Cl)c2c(NC(=O)N3C[C@](O)(C(F)(F)F)c4cc(F)ccc43)ccnc21 (single isomer, unassigned) [Compound I-2699]",1 to 10
